Experiments:
MDA-MB-231 cells [1] = assay: Cytotoxicity assay (CellTiter-Glo 2.0) on MDA-MB-231 cells; type: cell-based, Human; conditions: incubation 3 days; for IC50: Homo sapiens, 72 h
Method in brief: (§1)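 Each line is plated at a defined density in its growth medium and treated with test compounds for a duration set per cell line. Remaining viability is then measured by CellTiter-Glo 2.0 ATP luminescence and expressed as relative IC50.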

SW480 = assay: Cytotoxicity assay on KRAS mutated SW480 cells; type: cell-based, Human; conditions: incubation 2 days
Protocol: (§2) Cytotoxicity assays consist in treating cells with compounds and assessing remaining viability after a defined incubation time, depending on the cell line. CellTiter-Glo® 2.0 reagent allows viability measurement by quantification of ATP present, which is an indicator of metabolically active cells.
(§3) The cancer cell lines were cultivated in their respective growth medium (see tables 6a and 6b). On day 0 of the cytotoxicity assay, the cells were harvested and seeded into a 384-well plate at a defined density in their respective growth medium (see tables 6a and 6b). Compounds to be tested were then added onto the cells and incubated for a defined duration (see tables 6a and 6b). Following incubation, CellTiter-Glo® 2.0 reagent (cat.no. G9241 from Promega) was added into the wells (vol/vol, according to the manufacturer's recommendations), plates were gently shaken and incubated for 10 minutes in the dark at room temperature. Bioluminescence was then measured with a multimode plate reader (Victor Nivo from Perkin Elmer), and cell viability and relative IC50 were determined. Table 6a: Cancer cell characteristics, culture and cytotoxic assay conditions

A549 = assay: Cytotoxicity assay on KRAS mutated A549 cells; type: cell-based, Human; conditions: incubation 2 days
Protocol: as §2, §3

EoL-1 cells = assay: Cytotoxicity assay (CellTiter-Glo 2.0) on EoL-1 cells; type: cell-based, Human; conditions: incubation 1 day; for IC50: Homo sapiens, EOL1, 24 h
Method in brief: as §1

4T1 cells [2] = assay: Cytotoxicity assay (CellTiter-Glo 2.0) on 4T1 cells; type: cell-based, Mouse; conditions: incubation 2 days; for IC50: Mus musculus, 48 h
Method in brief: as §1

RPMI 8226 = assay: Cytotoxicity assay on KRAS mutated RPMI 8226 cells; type: cell-based, Human; conditions: RPMI 8226, KRAS mutated, incubation 2 days
Protocol: as §2, §3

HCT116 = assay: Cytotoxicity assay on KRAS mutated HCT116 cells; type: cell-based, Human; conditions: incubation 2 days
Protocol: as §2, §3

PSN1 = assay: Cytotoxicity assay on KRAS mutated PSN1 cells; type: cell-based, Human; conditions: incubation 2 days
Protocol: as §2, §3

HEC-1A = assay: Cytotoxicity assay on KRAS mutated HEC-1A cells; type: cell-based, Human; conditions: incubation 2 days
Protocol: as §2, §3

4T1 cells [3] = assay: Epithelial-mesenchymal transition marker expression by qRT-PCR; type: cell-based, Mouse; set-up: key: ↗: increased expression; ↘: decreased expression; =: unchanged expression levels; conditions: 24 hours, expression normalized against RPL13
Excerpt: The epithelial-mesenchymal transition (hereafter "EMT") is a process by which epithelial cells lose their cell polarity and cell-cell adhesion while gaining migratory and invasive properties to become mesenchymal stem cells. EMT is commonly measured by quantifying both epithelial and mesenchymal marker's expression by quantitative reverse-transcription polymerase chain reaction (hereafter "qRT-PCR"). EMT inhibition is observed when epithelial markers are stable or increased while mesenchymal markers are decreased.
4T1 cells were treated with compounds to be tested or DMSO for 24 hours. 4T1 cells were then harvested directly in NucleoZol lysis buffer (cat. no. 740404.200 from Macherey-Nagel), according to the manufacturer's instructions. Total RNA was extracted using the NucleoSpin RNA set for NucleoZol (cat. no. 740406.50 from Macherey-Nagel). The quantity and purity of RNA was determined using a Quickdrop (Molecular Devices). RT-PCR was performed on 500 ng total RNA using iScript gDNA clear cDNA synthesis Kit (cat.no. 1725035 from Biorad). The qPCR was run on a QuantStudio 5 real time thermocycler (Applied Biosystems), with PowerUp SYBR Green Master Mix (cat.no. A25742 from Fisher Scientific) and the primers listed in Table 16.
Expression data of EMT markers have been normalized against expression data of the housekeeping gene RPL13.

RD cells [4] = assay: Cytotoxicity assay (CellTiter-Glo 2.0) on RD cells; type: cell-based, Human; conditions: for IC50: Homo sapiens
Method in brief: as §1

HUVECs = assay: Tube formation assay (anti-angiogenic activity); type: cell-based, human; conditions: incubation 16 to 18 hours; for IC50: Homo sapiens, HUVEC
Method in brief: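 HUVECs plated at 5000 cells/well on reduced growth factor basement membrane matrix, then exposed to compounds for 16 to 18 hours at 37°C. Cells stained with calcein-AM; tube networks imaged by confocal fluorescence microscopy and quantified.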

Mia PaCa-2 = assay: Cytotoxicity assay on KRAS mutated Mia PaCa-2 cells; type: cell-based, Human; conditions: Mia PaCa-2, KRAS mutated, incubation 2 days
Protocol: as §2, §3

RD cells [5] = assay: Differentiation of RD cells into myotubes (alpha-actinin staining); type: cell-based, Human; conditions: 7 days, Figure 3
Protocol: RD cells are cancer cells of muscle origin that arose from myogenic precursors that fail to complete muscle differentiation. One strategy to stop their progression is to differentiate them into myotubes.
To allow differentiation, RD cells were seeded at a density of 3500 cells/well in a 384-well plate coated with collagen type I, in DMEM (4,5g/L glucose) with L-Gln (cat.no. 41965-039 from Gibco) supplemented with 5% of knockout serum replacement (cat.no. 10828-028 from Gibco), 1% PenStrep (Gibco), 1% MEM NEAA (Gibco) and 0.1 mM 2-mercaptoethanol (Gibco) (hereafter "K5 medium"). Compounds to be tested were then added onto the cells and incubated for 7 days at 37°C. On day 7, cells were fixed with 4% paraformaldehyde solution and immunostained for α-actinin (cat.no. EA-53 from Sigma, at 1/30000).

Src kinase family = assay: Human phospho-kinase array in RD cells; type: cell-based; conditions: 1 hour at its IC50, Figure 4
Protocol: Inhibition of kinases can be observed by quantifying both their phosphorylation levels and the phosphorylation level of downstream proteins in their pathways.
RD cells were cultured in vitro and expanded for 4 days prior to the experiments (see example 3.1 and table 6a for details). The assay was performed using the human phospho-kinase array kit (cat.no. ARY003C from R&D Systems), according to the manufacturer's instructions. The RD cells were treated with compound #032 for 1 hour at its IC50 (previously defined) and lysed with lysis buffer supplemented with aprotinin, leupeptin and pepstatin. The total protein extract was titrated using a micro-BCA kit (cat. no. 23235 from Thermofisher Scientific). The array membranes were blocked and incubated overnight at 4 °C with 500 µg of total protein. Then, the detection antibodies were added for 2 hours followed by the HRP-conjugated Streptavidin solution for 30 minutes. The chemiluminescent signal was finally developed by incubating the membranes with the chemi-reagent mix and placed in the Fusion-FX acquisition system (Vilber Instruments). Data were analyzed using ImageJ software (Wayne Rasband; NIH).

4T1 cells [6] = assay: Colony forming (clonogenic) assay; type: cell-based, Mouse; conditions: 6 days of treatment, Figure 2
Protocol: Cancer stem cells are characterized by their ability to undergo virtually unlimited divisions. Colony forming assay (or clonogenic assay) is an in vitro assay designed to assess capability of single cells to grow into large colonies through clonal expansion.
4T1 cells were seeded at a density of 500 cells per well of six-well plates in 4T1 medium. Compounds to be tested were added 24 hours after seeding. After 6 days of treatment, the cells were fixed in 4% PFA and stained with 1% aqueous solution of crystal violet. Pictures of the entire wells were acquired, and the area of the positives colonies was evaluated by ImageJ software (Wayne Rasband; NIH).

MDA-MB-231 cells [7] = assay: Scratch (wound healing) assay, cell migration; type: cell-based, Human; conditions: 24 hours, Figure 1
Protocol: Cell migration is involved in several pathological cancer processes such as tumor invasion, neoangiogenesis and metastasis. Scratch (or wound healing) assay is a method to study two-dimensional cell migration in vitro. It is based on the observation that cells growing in a monolayer migrate to reestablish cell contacts after a mechanical scratch wound.
The MDA-MB-231 cells were seeded into a 24-well plate and grown to confluent density. A scrape was made in each well using a pipette tip. Then, the cells monolayers were incubated for 2 hours with 5 µg/ml mitomycin C to stop cell proliferation. The cells were treated with the compounds to be tested for 24 hours. The cells were stained using CellMask Green actin tracking stain (cat.no. A57246 from Fisher Scientific) at time zero and at endpoint. Pictures were acquired using a fluorescence microscope (IXM from Molecular Device). The scratch area was measured with the ImageJ software. The recovery of the scratch area was calculated as a percentage of the scratch area at time zero.

Compound	IC50 (MDA-MB-231 cells [1]) [nM]	Cytotoxicity (MDA-MB-231 cells [1])	IC50 (EoL-1 cells) [nM]	Cytotoxicity (EoL-1 cells)	IC50 (4T1 cells [2]) [nM]	Cytotoxicity (4T1 cells [2])	Epithelial markers E-cadherin (4T1 cells [3])	Epithelial markers EpCAM (4T1 cells [3])	Mesenchymal markers Fibronectin (4T1 cells [3])	Mesenchymal markers Vimentin (4T1 cells [3])	Cytotoxicity (RD cells [4]; 2 day-treatment)	Cytotoxicity (RD cells [4]; 4 day-treatment)	IC50 (RD cells [4]; 48 h, 2 day-treatment) [nM]	IC50 (RD cells [4]; 96 h, 4 day-treatment) [nM]	IC50 (HUVECs) [nM]	Angiogenesis inhibition (HUVECs)	further results
CSc1cc(Oc2ccnc3c2OCC(=O)N3)ccc1NC(=O)Nc1cc(C(C)(C)C)no1 [Compound 020, 1-(3-tert-butylisoxazol-5-yl)-3-[2-methylsulfanyl-4-[(3-oxo-4H-pyrido[3,2-b][1,4]oxazin-8-yl)oxy]phenyl]urea]	< 1000	++ (50% ≤ cytotoxicity < 85%)	< 1	+++ (cytotoxicity ≥ 85%)	1000 to 5000	+++ (cytotoxicity ≥ 85%)	↗	=	↘	↘	++ (50% ≤ cytotoxicity < 85%)	++ (50% ≤ cytotoxicity < 85%)	1000 to 5000	< 1000	< 100	+++ (angiogenesis inhibition ≥ 80%)	IC50 (SW480; Homo sapiens, 48 h): < 1000 nM; Cytotoxicity (SW480): ++ (50% ≤ cytotoxicity < 85%); IC50 (A549; Homo sapiens, 48 h): < 1000 nM; Cytotoxicity (A549): ++ (50% ≤ cytotoxicity < 85%); IC50 (RPMI 8226; Homo sapiens, 48 h): < 1000 nM; Cytotoxicity (RPMI 8226): ++ (50% ≤ cytotoxicity < 85%); IC50 (HCT116; Homo sapiens, HCT-116, 48 h): < 1000 nM; Cytotoxicity (HCT116): +++ (cytotoxicity ≥ 85%); IC50 (PSN1; Homo sapiens, 48 h): < 1000 nM; Cytotoxicity (PSN1): +++ (cytotoxicity ≥ 85%); IC50 (HEC-1A; Homo sapiens, 48 h): < 1000 nM; Cytotoxicity (HEC-1A): ++ (50% ≤ cytotoxicity < 85%); IC50 (Mia PaCa-2; Homo sapiens, 48 h): < 1000 nM; Cytotoxicity (Mia PaCa-2): +++ (cytotoxicity ≥ 85%)
CSc1cc(Oc2ccnc3c2CCC(=O)N3)ccc1NC(=O)Nc1cc(C(C)(C)C)nn1-c1ccc(C)nc1 [Compound 032, 1-[5-tert-butyl-2-(6-methyl-3-pyridyl)pyrazol-3-yl]-3-[2-methylsulfanyl-4-[(7-oxo-6,8-dihydro-5H-1,8-naphthyridin-4-yl)oxy]phenyl]urea]	< 1000	++ (50% ≤ cytotoxicity < 85%)	1 to 10	+++ (cytotoxicity ≥ 85%)	< 1000	+++ (cytotoxicity ≥ 85%)	↗	↗	=	↘	++ (50% ≤ cytotoxicity < 85%)	+++ (cytotoxicity ≥ 85%)	1000 to 5000	1000 to 5000	< 100	+++ (angiogenesis inhibition ≥ 80%)	differentiation into myotubes (RD cells [5]): dose-dependent differentiation into myotubes; phosphorylation of members of the Src kinase family and their downstream proteins (Src kinase family): decreased phosphorylation; colony growth (4T1 cells [6]): inhibition of colony growth; migration in the scratch assay (MDA-MB-231 cells [7]): inhibition of their migration

Source: patent publication EP4289427A1, “DIHYDRO[1,8]NAPHTHYRIDIN-7-ONE AND PYRIDO[3,2-B][1,4]OXAZIN-3-ONE FOR USE IN TREATING CANCER, AND METASTASES IN PARTICULAR” (Anagenesis Biotechnologies, priority 2022, dated 2023)
